Reference: ChEMBL document CHEMBL1201862, “PubChem BioAssay data set” (2004)
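Exposure lasted 48 hours, with cells grown in 96-well plates and compounds tested at five concentrations. GI50: concentration for 50% inhibition of growth.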 Active and inactive are the calls of the source. No stated cut-off is given here; in the data, active = GI50 up to about 1.1 µM and inactive = higher.

Experiments:
Assay in all cases: growth of human tumour cells (NCI), 48 h
[1] = system: OVCAR-5
[2] = system: PC-3
[3] = system: TK-10
[4] = system: A498
[5] = system: UACC-62
[6] = system: SR
[7] = system: 786-0
[8] = system: RPMI-8226
[9] = system: OVCAR-8
[10] = system: T47D
[11] = system: HOP-62
[12] = system: SF-539
[13] = system: MDA-N
[14] = system: SK-OV-3
[15] = system: BT-549
[16] = system: Hs-578T
[17] = system: OVCAR-4
[18] = system: MOLT-4
[19] = system: EKVX

| SMILES | GI50 [1] | GI50 [2] | GI50 [3] | GI50 [4] | GI50 [5] | GI50 [6] | GI50 [7] | GI50 [8] | GI50 [9] | GI50 [10] | GI50 [11] | GI50 [12] | GI50 [13] | GI50 [14] | GI50 [15] | GI50 [16] | GI50 [17] | GI50 [18] | GI50 [19] |
| --- | --- | --- | --- | --- | --- | --- | --- | --- | --- | --- | --- | --- | --- | --- | --- | --- | --- | --- | --- |
| O=C(O)c1cc(CCc2cc(O)ccc2O)ccc1O | > 100 µM (inactive) | > 100 µM (inactive) | > 100 µM (inactive) | > 100 µM (inactive) | > 100 µM (inactive) | > 100 µM (inactive) | > 100 µM (inactive) | > 100 µM (inactive) | > 100 µM (inactive) | > 100 µM (inactive) | > 100 µM (inactive) | > 100 µM (inactive) | 14 µM (inactive) | > 100 µM (inactive) | > 100 µM (inactive) | > 100 µM (inactive) | > 100 µM (inactive) | 56.6 µM (inactive) | > 100 µM (inactive) |
| O=C(NCCCNC(=O)c1ccc2c(O)c(O)ccc2c1)c1ccc2c(O)c(O)ccc2c1 | 29.1 µM (inactive) | 47.1 µM (inactive) | 43.8 µM (inactive) | > 48.3 µM (inactive) | 29.9 µM (inactive) | 15.1 µM (inactive) | 23.9 µM (inactive) | 39.7 µM (inactive) | 35.6 µM (inactive) | > 100 µM (inactive) | 21.2 µM (inactive) | 28.1 µM (inactive) | 19.1 µM (inactive) | > 100 µM (inactive) | 18.7 µM (inactive) | 18.5 µM (inactive) | 57.5 µM (inactive) | 20.4 µM (inactive) | 32.4 µM (inactive) |
| CCCCCCCCCCCCCC(=O)N(CCCCCCCCC)CC(O)C(O)C(OC1OC(CO)C(O)C(O)C1O)C(O)CO (configuration not stated) | 32.9 µM (inactive) | 21.8 µM (inactive) | 18.6 µM (inactive) | 21.2 µM (inactive) | 20.7 µM (inactive) | 25.6 µM (inactive) | 17.1 µM (inactive) | 29.9 µM (inactive) | 20.8 µM (inactive) | 19.1 µM (inactive) | 24.6 µM (inactive) | 22 µM (inactive) | 21.6 µM (inactive) | 14.7 µM (inactive) | 22.9 µM (inactive) | 22.5 µM (inactive) | 24 µM (inactive) | 24.4 µM (inactive) | 18 µM (inactive) |
| Cc1c2c(c(C)n1-c1ccccc1)C(=O)N(CCCCN1CCN(c3ccccc3)CC1)C2=O | 49.3 µM (inactive) | 6.82 µM (inactive) | 30.2 µM (inactive) | 26.1 µM (inactive) | 15.8 µM (inactive) | 8.85 µM (inactive) | 4.97 µM (inactive) | 7.52 µM (inactive) | 14.2 µM (inactive) | 3.49 µM (inactive) | 7.73 µM (inactive) | 12 µM (inactive) | 9.57 µM (inactive) | 27.4 µM (inactive) | 16.9 µM (inactive) | 20.2 µM (inactive) | 13 µM (inactive) | 5.71 µM (inactive) | 10 µM (inactive) |
| CC#CCOC(=O)c1ccccc1OC(C)=O | > 100 µM (inactive) | > 100 µM (inactive) | > 100 µM (inactive) | > 100 µM (inactive) | > 100 µM (inactive) | > 100 µM (inactive) | > 100 µM (inactive) | > 100 µM (inactive) | > 100 µM (inactive) | > 100 µM (inactive) | > 100 µM (inactive) | > 100 µM (inactive) | > 100 µM (inactive) | > 100 µM (inactive) | > 100 µM (inactive) | > 100 µM (inactive) | > 100 µM (inactive) | > 100 µM (inactive) | > 100 µM (inactive) |
| CN(O)C(=O)c1cccc(Cl)c1 | > 100 µM (inactive) | > 100 µM (inactive) | > 100 µM (inactive) | > 100 µM (inactive) | > 100 µM (inactive) | 32.7 µM (inactive) | > 100 µM (inactive) | > 100 µM (inactive) | > 100 µM (inactive) | > 100 µM (inactive) | > 100 µM (inactive) | > 100 µM (inactive) | > 100 µM (inactive) | > 100 µM (inactive) | > 100 µM (inactive) | > 100 µM (inactive) | > 100 µM (inactive) | 51.2 µM (inactive) | > 100 µM (inactive) |
| O=C(O)c1ccccc1/C=N/N=C1NCCN1 | > 100 µM (inactive) | > 100 µM (inactive) | 46.8 µM (inactive) | 26.8 µM (inactive) | > 100 µM (inactive) | 88.5 µM (inactive) | > 100 µM (inactive) | 39.7 µM (inactive) | > 100 µM (inactive) | > 100 µM (inactive) | > 100 µM (inactive) | > 100 µM (inactive) | > 100 µM (inactive) | 61.5 µM (inactive) | > 100 µM (inactive) | > 100 µM (inactive) | > 100 µM (inactive) | > 100 µM (inactive) | > 100 µM (inactive) |
| CC(=C/C=C/C=C(C)\C=C\C=C(\C)C(=O)O)/C=C/C=C(/C)C(=O)O | > 100 µM (inactive) | > 100 µM (inactive) | > 100 µM (inactive) | > 100 µM (inactive) | > 100 µM (inactive) | > 100 µM (inactive) | > 100 µM (inactive) | > 100 µM (inactive) | > 100 µM (inactive) | > 100 µM (inactive) | > 100 µM (inactive) | > 100 µM (inactive) | > 100 µM (inactive) | > 100 µM (inactive) | > 100 µM (inactive) | > 100 µM (inactive) | > 100 µM (inactive) | > 100 µM (inactive) |  |
| NCCNC(=O)CN(CC(=O)O)C1CCCCC1N(CC(=O)O)CC(=O)O (configuration not stated) | > 100 µM (inactive) | > 100 µM (inactive) | > 100 µM (inactive) | > 100 µM (inactive) | > 100 µM (inactive) | > 100 µM (inactive) | > 100 µM (inactive) | > 10 µM (inactive) | > 100 µM (inactive) | > 100 µM (inactive) | > 100 µM (inactive) | > 100 µM (inactive) | > 100 µM (inactive) | > 100 µM (inactive) | > 100 µM (inactive) | 56 µM (inactive) | > 100 µM (inactive) | > 100 µM (inactive) | > 100 µM (inactive) |
| NC1C/C(=N\O)c2c(Cl)sc(Cl)c21 (configuration not stated) | 21.7 µM (inactive) | 20.8 µM (inactive) | 17.5 µM (inactive) | 20.2 µM (inactive) |  | 20.1 µM (inactive) | 18.1 µM (inactive) | 10.2 µM (inactive) | 15.2 µM (inactive) | 18.7 µM (inactive) | 21.5 µM (inactive) | 8.95 µM (inactive) | 18 µM (inactive) | > 100 µM (inactive) | 18.5 µM (inactive) | 59.3 µM (inactive) | 17.3 µM (inactive) | 9.73 µM (inactive) | 18.5 µM (inactive) |
| CCOC(=O)C12CCC(c3c(C)cccc3C)(O1)C(C(=O)OC)=C2C(=O)OC (configuration not stated) | 3.19 µM (inactive) | 2.09 µM (inactive) | > 10 µM (inactive) | 2.14 µM (inactive) | 4.73 µM (inactive) | 0.646 µM (active) | 3.08 µM (inactive) | 3.92 µM (inactive) | 5.4 µM (inactive) | 6.35 µM (inactive) | 4.11 µM (inactive) | 2.11 µM (inactive) | 0.484 µM (active) | 5.09 µM (inactive) | 4 µM (inactive) | 3.52 µM (inactive) | > 9.02 µM (inactive) | 4.74 µM (inactive) | > 7.18 µM (inactive) |
| O=C1CS[C@@](CC(c2ccc(Cl)cc2)c2ccc(Cl)cc2)(c2ccc(Cl)cc2)N1 | > 100 µM (inactive) | 4.68 µM (inactive) | 51.3 µM (inactive) | 11.6 µM (inactive) | 12.5 µM (inactive) | 4.24 µM (inactive) | 9.66 µM (inactive) | 5.05 µM (inactive) | 14.6 µM (inactive) | 4.28 µM (inactive) | 14.2 µM (inactive) | 22.8 µM (inactive) | 8.13 µM (inactive) | 45 µM (inactive) | 49.8 µM (inactive) | 38.2 µM (inactive) | 6.82 µM (inactive) | 3.32 µM (inactive) | 16.9 µM (inactive) |
| CCC(C)C1(O)OC2CC3(C)OC(=CC3=O)/C(C)=C\C3OC(=O)C1(C)C32 (configuration not stated) | 28.3 µM (inactive) | 37.2 µM (inactive) | 21 µM (inactive) | 25.2 µM (inactive) | 14.3 µM (inactive) | 5 µM (inactive) | 16.6 µM (inactive) | 7.1 µM (inactive) | 16 µM (inactive) | 15 µM (inactive) | 22.8 µM (inactive) | 22.3 µM (inactive) | 1.73 µM (inactive) | 37.6 µM (inactive) | 3.57 µM (inactive) | 30.5 µM (inactive) | 42.5 µM (inactive) | 12.3 µM (inactive) | 12.7 µM (inactive) |
| Cc1ccc(Nc2cc(=O)[nH]c(=S)[nH]2)cc1 | > 100 µM (inactive) | > 100 µM (inactive) | > 100 µM (inactive) | > 100 µM (inactive) | > 100 µM (inactive) | > 100 µM (inactive) | > 100 µM (inactive) | > 100 µM (inactive) | > 100 µM (inactive) | > 100 µM (inactive) | > 100 µM (inactive) | > 100 µM (inactive) | > 100 µM (inactive) | > 100 µM (inactive) | > 100 µM (inactive) | > 100 µM (inactive) | > 100 µM (inactive) | > 100 µM (inactive) | > 100 µM (inactive) |
| C[C@@](O)(/C=C/[C@H]1CC=CC(=O)O1)[C@@H](C[C@@H](O)\C=C/C=C\C=C\CO)OP(=O)(O)O [FOSTRIECIN SODIUM] | 6.31 µM (inactive) | 4.48 µM (inactive) | 12.8 µM (inactive) | 23.9 µM (inactive) | 3.77 µM (inactive) | 3.99 µM (inactive) | 5.36 µM (inactive) | 1.1 µM (active) | 9.48 µM (inactive) | 48.1 µM (inactive) | 4.9 µM (inactive) | 7.23 µM (inactive) | 0.828 µM (active) | 10.2 µM (inactive) | 9.59 µM (inactive) | 5.51 µM (inactive) | 5.27 µM (inactive) |  | 16.5 µM (inactive) |
